Results reported in patent publication US11179501B2, “Bone morphogenetic protein pathway activation, compositions for ossification, and methods related thereto” (Emory University, priority 2011, dated 2021).

Legend:
[1] = system: C2C12 cells; assay: Alkaline phosphatase (ALP) assay: potentiation of BMP-2-induced ALP activity; details: C2C12 cells, 50 ng/ml BMP-2, 72 hours; fold over BMP control
Procedure: (§1) Their activity was evaluated by determining the potentiation of alkaline phosphatase activity in sub-optimal doses of BMP in the presence or absence of exogenously added noggin.
The BMP-potentiating activities of compounds may be evaluated by monitoring several markers of the osteoblastic phenotype corresponding to various time points during phenotype differentiation of C2C12 cells towards terminally differentiated osteoblasts.
The C2C12 cells at passages 5 to 10 were subcultured in T-75 cm^2 flasks in DMEM supplemented with 10% FBS at 37° C. in 5% CO2 with humidification. When the flasks reached 80% confluence, the cells were trypsinized and seeded in triplicate.
The C2C12 cells were plated at 200,000 cells/well in 6-well plates and grown overnight in DMEM containing 10% FBS. On day 2, the culture medium was replaced with DMEM containing 2% FBS and the cells were treated with various concentrations of compound for 24 hours. On day 3, the culture medium was replaced with DMEM containing 2% FBS and the cells were treated with 50 ng/ml of BMP-2 and various concentrations of compound for 72 hours. The cells were washed with phosphate-buffered saline (PBS) and lysed by addition of lysis buffer (10 mM Tris-HCl pH 8.0, 1 mM MgCl2 and 1.0% Triton X-100). The cell lysates were centrifuged for 5 minutes at 13,000×g. The supernatant was removed and the aliquots were assayed for ALP activity and protein amount. The ALP activity was measured in triplicate using an ALP assay kit (Sigma-Aldrich, St. Louis, Mo.) in microtiter plates. The protein amount was determined with Bio-Rad protein assay reagent (Bio-Rad, Hercules, Calif.) using bovine serum albumin (BSA) as a standard. The ALP activity (nmoles of p-nitrophenol per ml) was normalized to the protein amount (nmoles of p-nitrophenol per μg).

[2] = system: C2C12 cells; assay: BMP-Noggin competitive alkaline phosphatase (ALP) assay; format: cell-based, Mouse; details: BMP-2 90-100 ng/ml plus noggin 100-120 ng/ml, 72 hours, fold over BMP alone control
Procedure: as §1
Mouse C2C12 cells and Dulbecco's modified Eagle's medium (DMEM) were purchased from ATCC (Manassas, Va.). The non-heat inactivated fetal bovine serum (FBS) was purchased from HyClone Laboratories, Inc. (Logan, Utah). The C2C12 cells at passages 5 to 10 were subcultured in T-75 cm^2 flasks in DMEM supplemented with 10% FBS at 37° C. in 5% CO2 with humidification. When the flasks reached 80% confluence, the cells were trypsinized and seeded in triplicate.
The C2C12 cells were plated at 200,000 cells/well in 6-well plates and grown overnight in DMEM containing 10% FBS. On day 2, the culture medium was replaced with DMEM containing 2% FBS and the cells were treated with 90-100 ng/ml of BMP-2 (as noted in each experiment), various concentrations of compound, and 100-120 ng/ml of noggin (as noted in each experiment) for 72 hours. The cells were washed with phosphate-buffered saline (PBS) and lysed by addition of lysis buffer (10 mM Tris-HCl pH 8.0, 1 mM MgCl2 and 1.0% Triton X-100). The cell lysates were centrifuged for 5 minutes at 13,000×g. The supernatant was removed and the aliquots were assayed for ALP activity and protein amount. The ALP activity was measured in triplicate using an ALP assay kit (Sigma-Aldrich, St. Louis, Mo.) in microtiter plates. The protein amount was determined with Bio-Rad protein assay reagent (Bio-Rad, Hercules, Calif.) using bovine serum albumin (BSA) as a standard. The ALP activity (nmoles of p-nitrophenol per ml) was normalized to the protein amount (nmoles of p-nitrophenol per μg).

[3] = system: Sprague Dawley rats; assay: Collagen disc implantation with macrolides in rat ectopic model; format: in vivo; design: Ave. (Xray score): scale not given here; details: for Ave. (Xray score) / Results (bone, animals with bone of 4): 100 ul, collagen, no BMP-2, 4 weeks
Excerpt: Sprague Dawley rats about 5-6 weeks of age were chest implanted with a collagen disc (diameter of 1.0 cm and height of 2.0 mm; total volume of 150 cubic millimeters) and doses of macrolides in the absence of BMP-2. After 4 weeks the rats were sacrificed and evaluated for bone growth. […] In certain embodiments, the disclosure contemplates local bone formation for fracture repair, segmental bone defects, spine fusion, bone grafting, and regional bone enhancement for osteopenic bones before they fracture (e.g. hip, vertebral body, etc) by deliver locally to induce local bone formation.

Compound	Fold increase in BMP-Potentiated ALP activity over BMP control [1]	Fold increase in Noggin-Inhibition ALP Assay over BMP alone control [2]	further results
C=CCc1ccc(O)c(-c2ccc(O)c(CC=C)c2)c1 [Honokiol, 3′,5-di-2-propen-1-yl-[1,1′-biphenyl]-2,4′-diol]	5	16	–
CC1=C(/C=C/C(C)=C/C=C/C(C)=C\C(=O)O)C(C)(C)CCC1 [Isotretinoin, isotretinoin]	30	3	–
CC(=O)NC[C@H]1CN(c2ccc(N3CCOCC3)c(F)c2)C(=O)O1 [Linezolid, N-[[(5S)-3-[3-fluoro-4-(4-morpholinyl)phenyl]-2-oxo-5-oxazolidinyl]methyl]-acetamide]	5	3	–
CC1=C(/C=C/C(C)=C/C=C/C(C)=C/C(=O)O)C(C)(C)CCC1 [Retinoic acid, (2E,4E,6E,8E)-3,7-dimethyl-9-(2,6,6-trimethylcyclohexen-1-yl)nona-2,4,6,8-tetraenoic acid]	11	2	–
CC(=O)S[C@@H]1CC2=CC(=O)CC[C@]2(C)[C@H]2CC[C@@]3(C)[C@@H](CC[C@@]34CCC(=O)O4)[C@H]12 [Spironolactone, spironolactone]	3	4	–
C=CCC1C=C(C)CC(C)CC(OC)C2OC(O)(C(=O)C(=O)N3CCCCC3C(=O)OC(/C(C)=C/C3CCC(O)C(OC)C3)C(C)C(O)CC1=O)C(C)CC2OC (stereo not drawn) [Tacrolimus, 5,6,8,11,12,13,14,15, 16,17,18,19,24,25,26,26a-hexadecahydro-5,19-dihydroxy-3-[(1E)-2-[4-hydroxy-3-methoxycyclohexyl]-1-methylethenyl]-14,16-dimethoxy-4,10,12,18-tetramethyl-8-(2-propen-1-yl)-15,19-epoxy-3H-pyrido[2,1-c][1,4]oxaazacyclotricosine-1,7,20,21(4H,23H)-tetrone]	7	5	Ave. (Xray score) ([3]; dose 10 mM): 0; Results (bone, animals with bone of 4) ([3]; dose 10 mM): No bone (0 of 4); Ave. (Xray score) ([3]; dose 15 mM): 0.5; Results (bone, animals with bone of 4) ([3]; dose 15 mM): Bone (1 of 4); Ave. (Xray score) ([3]; dose 20 mM): 3.25; Results (bone, animals with bone of 4) ([3]; dose 20 mM): Bone (3 of 4); Ave. (Xray score) ([3]; dose 25 mM): 4.25; Results (bone, animals with bone of 4) ([3]; dose 25 mM): Bone (4 of 4); Ave. (Xray score) ([3]; dose 30 mM): 2.5; Results (bone, animals with bone of 4) ([3]; dose 30 mM): Bone (3 of 4); Ave. (Xray score) ([3]; dose 35 mM): 4; Results (bone, animals with bone of 4) ([3]; dose 35 mM): Bone (4 of 4); De novo bone formation ([3]; local, collagen disc, chest implant, absence of BMP-2, 4 weeks): De novo bone formation is demonstrated locally
CCCc1nc2c(C)cc(-c3nc4ccccc4n3C)cc2n1Cc1ccc(-c2ccccc2C(=O)O)cc1 [Telmisartan, 4′-((1,7′-dimethyl-2′-propyl-1H,3′H-[2,5′-bibenzo[d]imidazol]-3′-yl)methyl)[1,1′-biphenyl]-2-carboxylic acid]	3	3	–
